Data: article PMC4779441 (International journal of peptide research and therapeutics, 2015)

Test system: HCT-116 cells
Assay: In vitro cells' growth inhibition assay
Settings: Homo sapiens, HCT-116, 48 h, read-out: EC50 [µM] HCT-116

EC50: 74.5 ± 3.7 µM
SMILES: CC(=O)O[C@@]12CO[C@@H]1C[C@H](O)[C@@]1(C)C(=O)[C@H](O)C3=C(C)[C@@H](OC(=O)[C@H](O)[C@@H](NC(=O)OC(C)(C)C)c4ccccc4)C[C@@](O)([C@@H](OC(=O)c4ccccc4)[C@H]21)C3(C)C [DTX, Docetaxel]
